Like-named read-outs stand apart in the source and are kept apart here.
How the values were obtained:
[1] = molecular target: T1, hLigI (Homo sapiens, UniProt P18858); assay: High-throughput fluorescence-based DNA joining (ligation) assay; assay type: biochemical
T1 construct: made in house
Method in brief: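 Nicked DNA substrate (10 pmol) was incubated with 0.25 pmol hLigI, with or without 100 μmol/L test compound, in duplicate. Afterwards the DNA was denatured and renatured with a 20-fold excess of unmodified oligonucleotide. Ligation forms an AF488/BHQ1 hairpin, read as reduced fluorescence at 518 nm.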

[2] = molecular target: T2, human DNA ligase III (Homo sapiens, UniProt P49916); assay: as above; assay type: biochemical
T2 sequence (P49916 1-862 isoform P49916-4): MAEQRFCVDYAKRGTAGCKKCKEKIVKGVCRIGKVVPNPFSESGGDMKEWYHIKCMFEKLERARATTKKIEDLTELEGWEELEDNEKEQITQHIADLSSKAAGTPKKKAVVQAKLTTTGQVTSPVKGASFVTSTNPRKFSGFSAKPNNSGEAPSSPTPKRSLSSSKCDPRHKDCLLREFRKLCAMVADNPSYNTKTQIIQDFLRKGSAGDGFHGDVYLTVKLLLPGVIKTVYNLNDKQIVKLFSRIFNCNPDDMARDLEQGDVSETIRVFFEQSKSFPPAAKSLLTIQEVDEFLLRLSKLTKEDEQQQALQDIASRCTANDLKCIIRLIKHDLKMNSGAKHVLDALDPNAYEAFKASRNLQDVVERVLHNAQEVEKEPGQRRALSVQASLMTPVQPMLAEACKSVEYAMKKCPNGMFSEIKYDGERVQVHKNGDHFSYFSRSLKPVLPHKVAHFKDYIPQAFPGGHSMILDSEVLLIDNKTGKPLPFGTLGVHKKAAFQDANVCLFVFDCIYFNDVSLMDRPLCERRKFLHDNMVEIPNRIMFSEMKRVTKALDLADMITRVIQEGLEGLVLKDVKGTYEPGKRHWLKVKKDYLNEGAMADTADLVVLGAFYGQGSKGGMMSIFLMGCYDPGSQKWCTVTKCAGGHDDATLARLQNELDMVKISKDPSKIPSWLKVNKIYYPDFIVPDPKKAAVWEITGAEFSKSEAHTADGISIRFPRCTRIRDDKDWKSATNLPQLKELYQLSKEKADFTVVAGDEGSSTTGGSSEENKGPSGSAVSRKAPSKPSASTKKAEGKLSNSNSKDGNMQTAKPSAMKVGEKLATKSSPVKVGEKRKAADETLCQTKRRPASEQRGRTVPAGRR
Method in brief: (§1)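 Ligation joins an AF488-labelled and a BHQ1-labelled oligonucleotide. After denaturation and renaturation with a 20-fold excess of unlabelled competitor strand, the product forms a quenched hairpin, so joining is read as loss of 518 nm fluorescence. Ligase III used a nicked duplex; ligase IV used two duplexes with short complementary single-strand ends.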

[3] = molecular target: human DNA ligase IV (Homo sapiens, UniProt P49917); assay: as above; assay type: biochemical
Method in brief: as §1

[4] = test system: MCF10A cells; assay: Screen for potentiation of DNA damaging agents (MMS, camptothecin, cis-platinum, 3 aminobenzamide, ionizing radiation); assay type: cell-based, human; settings: 1 = no sensitization; for MMS: Ratios of IC50 MCF10A: compound alone vs combination with MMS (100 μM)
Excerpt: The 192 human DNA ligase inhibitors were screened in parallel for effects on proliferation and the ability to potentiate the effects of several DNA damaging agents using two cell human lines, a colon cancer line HCT116 and a normal breast epithelial cell line MCF10A using a Biomek FX Laboratory Automation Workstation as described (23). The DNA damaging agents used, methyl methanesulfonate (MMS), camptothecin, cis-platinum, 3 aminobenzamide and ionizing radiation, are representatives of classes of agents used to treat cancer. Briefly, HCT116 and MCF10A cells were plated in 96 well plates such that the cultures were about 80% confluent after 5 days incubation. Compounds were added to the cultures at either 15 μM or 50 μM 1 day after plating. After incubation for 3 days, cell lysed in a solution containing 1.2% Igepal CA-630 and SYBR green that stains DNA (1:1000, Molecular Probes, Eugene, Oreg.). Subsequently, fluorescence was measured per well. The studies with DNA damaging agents were performed as follows. […] Cultures were incubated for 3 days and then treated as above.

[5] = test system: MCF10A cells; assay: MTT cell growth assay; assay type: cell-based, human; settings: Homo sapiens, MCF-10A
Experimental: (§2) The activity of hits from the initial screen was further validated using the MTT assay. Briefly, MCF10A and HCT116 cells were seeded in 96 well plates at 300 and 1200 cells per well, respectively, and allowed to adhere overnight. The following day, serial dilutions of compounds in media were added to the cells in a final volume 200 μl. After incubation for 5 days, MTT reagent (3-(4,5-dimthylthiazol-2-yl)-2,5-diphenyltatrazolium) was added and incubation was continued for 4 h. Formazan crystals generated by reduction of the MTT reagent in mitochondria were solubilized with isopropanol prior to the measurement of absorbance at 560 nm wavelength in a plate reader.
To extend the results of the […] cell culture screening assay, a subset of compounds were tested in larger cultures. Different concentrations of Compounds 67 and 151 were added to asynchronous subconfluent populations of HCT116 and MCF10A cells. Asynchronous subconfluent populations of HCT116 and MCF10A cells were pre-treated with different concentrations of compound 64 prior to the addition of 3 aminobenzamide (2 mM) MMS (100 μM) or cis-platinum (1 μM). After incubation for 5 days, cell growth was measured by the MTT assay (16).

[6] = test system: HCT116 and MCF10A cells; assay: Cell proliferation screen, result stated for one or both cell lines; assay type: cell-based; settings: Homo sapiens, read-out: IC50 of inhibition of proliferation
[7] = molecular target: T3, T4 DNA ligase (Enterobacteria phage T4, UniProt P00970); assay: High-throughput fluorescence-based DNA joining assay, non-specific inhibitor control; assay type: biochemical, bacteriophage T4
T3 construct: purchased NEB
T3 sequence (P00970 1-487): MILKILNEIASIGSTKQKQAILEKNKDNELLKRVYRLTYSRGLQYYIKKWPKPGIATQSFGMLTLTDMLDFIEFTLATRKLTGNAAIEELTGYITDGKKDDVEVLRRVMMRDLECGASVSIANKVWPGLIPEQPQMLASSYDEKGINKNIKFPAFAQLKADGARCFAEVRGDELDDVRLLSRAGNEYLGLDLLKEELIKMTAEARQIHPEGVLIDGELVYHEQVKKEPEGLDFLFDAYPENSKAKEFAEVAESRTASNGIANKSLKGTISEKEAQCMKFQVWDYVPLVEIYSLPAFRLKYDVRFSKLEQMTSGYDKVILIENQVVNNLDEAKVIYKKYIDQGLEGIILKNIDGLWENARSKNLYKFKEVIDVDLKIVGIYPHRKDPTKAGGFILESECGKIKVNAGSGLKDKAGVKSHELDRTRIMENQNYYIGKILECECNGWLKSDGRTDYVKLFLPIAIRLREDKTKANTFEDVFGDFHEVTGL
Experimental: Candidate ligase inhibitors identified by CADD were assayed for their ability to inhibit hLigI and T4 DNA ligase using a high-throughput, fluorescence energy transfer-based DNA joining assay (22). Duplicate reactions (30 μL) containing 10 pmol of nicked DNA substrate and either 0.25 pmol of hLigI or 10 units of T4 DNA ligase were incubated in the presence or absence of 100 μmol/L of the putative inhibitor. DNA binding by the candidate DNA ligase inhibitors was measured by displacement of ethidium bromide from DNA as previously described (30).
In addition, to identify compounds that may be non-specific inhibitors of DNA joining, the 192 compounds were also assayed for their ability to inhibit bacteriophage T4 DNA ligase, an enzyme that utilizes the same reaction mechanism as hLigI, has similar adenylation and OB-fold domains but lacks a DBD domain. (6) Although this is also an ATP-dependent DNA ligase, it lacks the domain containing the binding pocket targeted by the in silico screen. Compounds that inhibited T4 DNA ligase were eliminated as non-specific inhibitors that most likely bind to the DNA.

[8] = molecular target: hLigIV/XRCC4 (Homo sapiens, UniProt P49917); assay: Radioactive gel-based DNA ligation assay; assay type: biochemical; design: concentration or dose not given beside the values
[9] = test system: HCT116 cells; assay: Screen for potentiation of DNA damaging agents (MMS, camptothecin, cis-platinum, 3 aminobenzamide, ionizing radiation); assay type: cell-based, human; settings: compound alone vs combination with MMS (100 μM); 1 = no sensitization
Excerpt: (§3) The 192 human DNA ligase inhibitors were screened in parallel for effects on proliferation and the ability to potentiate the effects of several DNA damaging agents using two cell human lines, a colon cancer line HCT116 and a normal breast epithelial cell line MCF10A using a Biomek FX Laboratory Automation Workstation as described (23). The DNA damaging agents used, methyl methanesulfonate (MMS), camptothecin, cis-platinum, 3 aminobenzamide and ionizing radiation, are representatives of classes of agents used to treat cancer. Briefly, HCT116 and MCF10A cells were plated in 96 well plates such that the cultures were about 80% confluent after 5 days incubation. Compounds were added to the cultures at either 15 μM or 50 μM 1 day after plating. After incubation for 3 days, cell lysed in a solution containing 1.2% Igepal CA-630 and SYBR green that stains DNA (1:1000, Molecular Probes, Eugene, Oreg.). Subsequently, fluorescence was measured per well. The studies with DNA damaging agents were performed as follows. […] For ionizing radiation, cells were pre-incubated with the compounds at 50 μM for 1 hour prior to exposure to 2 gray of ionizing radiation. Cultures were incubated for 3 days and then treated as above.

[10] = test system: HCT116 and MCF10A cells; assay: Screen for potentiation of DNA damaging agents, cell line not stated with the result; assay type: cell-based, human; settings: 50 μM, MMS 100 μM
Excerpt: as §3

[11] = test system: HCT116 cells; assay: MTT cell growth assay; assay type: cell-based, human; settings: Homo sapiens, HCT-116
Experimental: as §2
After incubation for 5 days, cell growth was measured by the MTT assay (16).

[12] = read-out: % of inhibition @ 100 μM (Helen's data) hLigI
[13] = read-out: % of inhibition @ 100 μM (Helen's data) hLigIII
[14] = 100 μM, read-out: % of inhibition @ 100 μM (Helen's data) hLigIV
[15] = cell growth, compound alone, read-out: IC50 (μM) MCF10A
[16] = sections 'high concentrations (~50 μM)' and 'active in vitro that decreased cell growth', same figures given in μM elsewhere in Table 6, read-out: IC50 MCF10A (head without unit)

human DNA ligase IV, sequence (P49917 whole entry): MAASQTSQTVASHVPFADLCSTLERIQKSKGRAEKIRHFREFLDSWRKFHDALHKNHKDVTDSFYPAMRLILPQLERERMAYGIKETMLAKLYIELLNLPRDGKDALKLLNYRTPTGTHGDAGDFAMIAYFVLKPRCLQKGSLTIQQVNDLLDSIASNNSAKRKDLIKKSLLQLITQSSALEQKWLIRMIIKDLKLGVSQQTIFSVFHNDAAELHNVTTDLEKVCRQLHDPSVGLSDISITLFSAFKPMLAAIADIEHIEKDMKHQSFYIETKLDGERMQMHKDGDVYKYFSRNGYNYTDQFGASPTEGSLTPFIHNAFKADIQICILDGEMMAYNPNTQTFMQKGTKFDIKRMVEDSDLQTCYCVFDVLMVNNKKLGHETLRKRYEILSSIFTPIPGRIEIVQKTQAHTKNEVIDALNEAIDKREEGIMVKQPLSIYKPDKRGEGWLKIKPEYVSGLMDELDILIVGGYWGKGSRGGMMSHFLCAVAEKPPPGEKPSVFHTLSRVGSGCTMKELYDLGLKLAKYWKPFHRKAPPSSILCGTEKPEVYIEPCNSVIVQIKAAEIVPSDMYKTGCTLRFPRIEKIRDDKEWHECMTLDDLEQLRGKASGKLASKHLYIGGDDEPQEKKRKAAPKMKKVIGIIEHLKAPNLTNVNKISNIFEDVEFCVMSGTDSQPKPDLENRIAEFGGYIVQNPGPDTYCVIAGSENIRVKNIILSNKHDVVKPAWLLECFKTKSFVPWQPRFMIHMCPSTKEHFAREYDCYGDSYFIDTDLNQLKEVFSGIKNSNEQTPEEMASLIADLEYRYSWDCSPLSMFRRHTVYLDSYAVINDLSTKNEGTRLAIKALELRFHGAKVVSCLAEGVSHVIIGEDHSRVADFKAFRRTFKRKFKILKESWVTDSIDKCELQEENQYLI
human DNA ligase IV, sequence (Q13426 whole entry partner): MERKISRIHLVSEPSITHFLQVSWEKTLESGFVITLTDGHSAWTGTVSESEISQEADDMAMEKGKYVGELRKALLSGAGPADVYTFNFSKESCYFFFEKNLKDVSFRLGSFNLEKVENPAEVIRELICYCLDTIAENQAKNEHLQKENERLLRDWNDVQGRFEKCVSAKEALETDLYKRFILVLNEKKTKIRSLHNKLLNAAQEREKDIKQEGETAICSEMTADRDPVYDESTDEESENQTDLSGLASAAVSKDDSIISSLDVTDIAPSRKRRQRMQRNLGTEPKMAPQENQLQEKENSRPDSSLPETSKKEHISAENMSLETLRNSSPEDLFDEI
T1 sequence (P18858 whole entry): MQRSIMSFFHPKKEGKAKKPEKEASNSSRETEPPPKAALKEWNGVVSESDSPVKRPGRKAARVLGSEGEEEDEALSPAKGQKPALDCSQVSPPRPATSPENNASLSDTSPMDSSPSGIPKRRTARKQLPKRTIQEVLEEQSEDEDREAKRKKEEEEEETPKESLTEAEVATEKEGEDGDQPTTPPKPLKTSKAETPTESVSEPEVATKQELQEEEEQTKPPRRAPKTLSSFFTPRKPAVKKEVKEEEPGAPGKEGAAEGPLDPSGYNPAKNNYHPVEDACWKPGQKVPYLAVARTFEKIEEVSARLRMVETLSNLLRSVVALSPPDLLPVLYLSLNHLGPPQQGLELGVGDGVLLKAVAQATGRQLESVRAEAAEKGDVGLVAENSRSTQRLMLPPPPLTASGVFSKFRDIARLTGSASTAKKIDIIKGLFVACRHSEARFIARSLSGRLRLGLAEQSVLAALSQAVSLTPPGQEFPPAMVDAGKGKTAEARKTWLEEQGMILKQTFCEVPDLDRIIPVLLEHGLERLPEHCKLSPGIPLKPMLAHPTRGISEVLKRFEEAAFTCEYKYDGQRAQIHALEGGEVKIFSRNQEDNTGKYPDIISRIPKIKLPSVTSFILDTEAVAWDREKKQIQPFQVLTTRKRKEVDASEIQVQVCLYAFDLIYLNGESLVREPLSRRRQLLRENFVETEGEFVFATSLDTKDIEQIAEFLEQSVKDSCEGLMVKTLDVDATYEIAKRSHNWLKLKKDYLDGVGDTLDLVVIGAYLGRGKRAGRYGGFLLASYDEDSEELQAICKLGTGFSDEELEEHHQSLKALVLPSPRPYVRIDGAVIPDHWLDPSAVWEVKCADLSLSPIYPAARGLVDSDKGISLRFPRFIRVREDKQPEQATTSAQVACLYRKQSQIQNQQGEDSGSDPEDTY
hLigIV/XRCC4, sequence (P49917 whole entry): as the sequence (P49917 whole entry) above
hLigIV/XRCC4, sequence (Q13426 whole entry partner): as the sequence (Q13426 whole entry partner) above

Compound	inhibition at 100 µM [1, 12]	inhibition at 100 µM [2, 13]	inhibition at 100 µM [3, 14]	MMS: Ratios of IC50 MCF10A [4]	IC50 [5, 15]	IC50 [5, 16]	IC50 [6]	other results
Nn1cnnc1N/N=C/c1cc([N+](=O)[O-])c(Cl)cc1Cl [Compound 195]	26%	24%	< 20%	1.2	3 µM	3 µM	< 20 µM	–
O=C(Nc1nc2ccccc2s1)c1ccc(Cl)c([N+](=O)[O-])c1 [Compound 165]	< 20%	< 20%	37.2%	1	3 µM	3 µM	< 20 µM	% of inhibition @ 100 μM (Helen's data) hLigIV ([3]; 100 μM): 37%
O=C(O)c1ccccc1Nc1ccc([N+](=O)[O-])c2nonc12 [Compound 16]	< 20%	< 20%	< 20%	1	6 µM	–	< 20 µM	–
CCn1nc(N)c2c(O)nc(O)cc21 [Compound 93]	–	–	–	–	–	–	–	% activity Inhibition hLigI 100 uM ([1]; 100 uM): Ø; inhibition at 100 µM ([1]; read-out: In vitro % inhib hLigI 100): 0%; inhibition at 100 µM ([2]; 100 μM, read-out: In vitro % inhib hLigIII 100): 0%; % activity Inhibition hLigIII 100 uM ([2]; 100 uM, Ø not defined (0 in Table 5A)): Ø; inhibition at 100 µM ([3]; 100 μM, read-out: In vitro % inhib hLigIV 100): 37 ± 6%; inhibition at 100 µM ([3]; 100 uM, Ø not defined (0 in Table 5A), read-out: % activity Inhibition hLigIV 100 uM): 37.6 ± 6.1%; inhibition of human DNA ligase IV, in words ([3]; in vitro screen): specific for DNA ligase IV; % activity Inhibition LigT4 100 uM ([7]; 100 uM): Ø; inhibition at 100 µM ([7]; 100 μM, read-out: In vitro % inhib T4 100): 0%; % activity Inhibition hLigIV gel [8]: Ø
C=CCN1C(=O)/C(=N\NC(=O)c2ccccc2O)c2ccccc21 [Compound 78]	–	> 20%	–	1.5	7.5 µM	7.5 µM	< 20 µM	inhibition at 100 µM ([3]; read-out: % of inhibition @ 100 μM (Helen's data) hLigIV): < 20%; MMS: Ratios of IC50 HCT116 [9]: 1; IC50 ratios of non- and 3-AB treated cells MCF10A ([4]; compound alone vs combination with 3-AB (2 mM)): 1; enhancement of the cytostatic effect of MMS [10]: enhance the cytostatic effect of MMS; IC50 ([11]; cell growth, compound alone, read-out: IC50 (μM) HCT116): 10 µM; IC50 ([11]; sections 'high concentrations (~50 μM)' and 'active in vitro that decreased cell growth', same figures given in μM elsewhere in Table 6, read-out: IC50 HCT116 (head without unit)): 10 µM
